US20220031848A1, “BIOINK FOR 3D DEPOSITION” (Regents of the University of Minnesota, priority 2018, published 2022)

Key:
printed heart = experiment: Fluid pressure in ventricular-like chamber of the printed heart (FIG. 11A); format: cell-based; conditions: versus spontaneous mechanical activity of the same chamber
Excerpt: FIG. 11A is a graph of pressure dynamics of an example printed heart using bioink described herein. […] The relatively flat line is the system baseline without contraction. Other clinically-important, physiologically complex mechanical parameters can also be measured. FIG. 11B is an optical map of an example printed heart using bioink described herein.

[1] = test system: differentiated hiPSCs in the printed heart; experiment: Calcium traces of the printed heart, first experiment (FIG. 9); format: cell-based, human; conditions: complex printed heart (FIG. 9)
hChaMPs [2] = experiment: Calcium transients in hChaMPs (Fluo-4 AM), drug response; format: cell-based, human
Procedure: Calcium movement in hChaMPs was recorded after recovery from lactate treatment using a DMi8 fluorescence microscope (Leica, Wetzlar, Germany). hChaMPs were first cultured with 5 μM Fluo-4 acetoxymethyl ester for 30 min at 37° C. and then washed with Tyrode's salt solution for another 30 min at 37° C. After that, the plates with hChaMPs were moved onto the microscope stage and covered with a heating plate to maintain the temperature at 37° C. Fluo-4 AM intensity was recorded at a frame rate of 6.90 Hz with 30 ms exposure time. The acquired data was processed by Fiji and a custom-written script in MATLAB (MathWorks). To generate the calcium traces, background signals of nonactive regions were subtracted from fluorescence signals of beating sites and then normalized against the baseline intensity. The effects of ionotropic drugs on calcium activity of hChaMPs were also analyzed by incubating Fluo-4 AM-treated hChaMPs with 1 μM Isoproterenol or 0.5 μM Verapamil for 10 min at 37° C. prior to being imaged. Calcium transients are presented as normalized intensity (f/f0) over time, along with the average peak amplitude and the average interspike interval.

hChaMPs [3] = experiment: Contractility video analysis of hChaMPs; format: cell-based; conditions: Homo sapiens; at least 3 different areas across 2 hChaMPs (FIG. 38); read-out: EC50, beat rate by contractility
Excerpt: Beating videos of hChaMPs were obtained at 4× on an Axiovert CFL 40 microscope at 8.7 frames per second. Beating rates (contraction, relaxation, and beats per minute) were obtained using an open source automated video analysis algorithm^4 with a macroblock size of 100×100 pixels and a maximum movement detection of 50 pixels to accommodate the robust movement of the tissue. For generation of a heat map of contractility over an entire hChaMP, a macroscale video was used with the macroblock size set to 25×25 pixels in the video analysis algorithm with a maximum movement detection of 20 pixels due to the lower magnification.

hChaMP [4] = experiment: Pressure-volume catheter measurement in hChaMP; format: cell-based, human; conditions: 1 μM versus spontaneous contraction, 5 contraction cycles (FIGS. 44A, 44B)
Procedure: Pulse pressure and stroke volume of hChaMPs were measured using an ADV500 PV system with a PV catheter. The hChaMP was transferred to a 10 cm dish with 20 mL RPMI plus B-27 Supplement with insulin on a heating plate pre-heated to 37° C. to ensure the working temperature was always above 30° C. The PV catheter was inserted and positioned close to the apex of hChaMP to obtain clear pressure and volume signals, and the vessel through which the catheter was inserted was tied off to stabilize the construct. Isoproterenol was given by adding 20 μL of 1 mM solution into the dish to achieve the final concentration of 1 μM. […] The volume reading was further calibrated by conducting a dye dilution test. Briefly, acellular hChaMPs were first monitored by the ADV500 PV system while being compressed and released by 1.45 mm, 2.9 mm, and 4.35 mm from the side. […] Next, the hChaMP was compressed and released by 1.45 mm depth from the side for 3 times, and the hChaMP was then removed and the bulk medium was collected and examined by a Cytation 3 microplate reader at 524 nm for absorbance from which the displaced volume could be determined. […]
The acquired data was post-processed and analyzed by a custom-written script in MATLAB. […] To examine the stroke work generated by the hChaMPs, 5 random contraction cycles were used for creating PV loops and the stroke work was determined by the area in the loops.

hChaMP [5] = experiment: Optical mapping of voltage in hChaMP (di-4-ANEPPS); format: cell-based, human; conditions: 1 μM (FIG. 35B)
Procedure: The hChaMP was immersed in a 10 μM solution of the voltage-sensitive dye di-4-ANEPPS in Krebs-Ringer Buffer for 20 min. After this incubation, half of the dye solution was removed and replaced with RPMI+B27 with insulin media. After 2-5 min stabilization, hChaMPs were excited with a two diode-pumped, continuous-excitation green laser (532 nm, 1 W), and fluorescence intensity was recorded for 15 seconds using 14-bit, 80×80-pixel resolution cameras at 500 frames per second. In some hChaMPs, pacing was provided at 1 and 2 Hz via a bipolar electrode and optical mapping movies were recorded during pacing. For drug testing, hChaMPs were treated with 1 μM of isoproterenol and optical mapping movies were recorded with and without pacing.
Optical action potential duration (APD) was measured at 80% repolarization, and two-dimensional (2D) APD maps were constructed to reveal the spatial distribution of APD on the hChaMP surface. Local conduction velocity (CV) was calculated as described previously. Specifically, the distributions of activation times (AT), measured at (dV/dt)max, for the spatial regions of 3×3 pixels were fitted with the plane, and gradients of activation times gx and gy were calculated for each plane along the x- and y-axes, respectively. The magnitude of the local CV was calculated for each pixel as (gx^2+gy^2)^−1/2. Mean values for CV were calculated for the visible surface. […]

`Cc1ccc2c(c1)C(=O)C1(O)CCN(c3ccccc3)C1=N2` (stereo not drawn) [blebbistatin] was tested, and the chamber pressure amplitude (printed heart) was “inhibited pressure amplitudes”.

With `Cn1c(=O)c2c(ncn2C)n(C)c1=O` [caffeine] the “beating rate with respect to control” value [1] was “accelerate”.

In the case of `CC(C)NCC(O)c1ccc(O)c(O)c1` (stereo not drawn) [isoproterenol], the calcium handling frequency (hChaMPs [2]; 1 μM, 10 min at 37° C.) is reported as “increased in frequency”, the EC50 (hChaMPs [2]; Homo sapiens, 5 different areas across two hChaMPs (FIG. 31), read-out: EC50, beat rate by calcium transient activity) is reported as 9 nM and the EC50 (hChaMPs [3]) is reported as 9 nM. For the same compound, the stroke work (hChaMP [4]) was “reduced” and the “response of electrical activity to drug stimulation” value (hChaMP [5]) was “responded in a dramatic and predicted fashion”.

With `COc1ccc(CCN(C)CCCC(C#N)(c2ccc(OC)c(OC)c2)C(C)C)cc1OC` (stereo not drawn) [verapamil] the calcium handling amplitude (hChaMPs [2]; 0.5 μM, 10 min at 37° C.) was “decreased in amplitude” and the “beating rate with respect to control” value [1] was “slow”.
